# Source: patent US20030232851A1, “Viral treatment” (The Procter & Gamble Company, priority 1999, published 2003)
# Where “and” joins values, the source holds several entries; their conditions need not be identical. Identical values can stand only once. Like-named read-outs stand apart in the source and are kept apart here.
# What was measured:
# HIV-1 protease = biological target: T1, HIV-1 protease (Human immunodeficiency virus type 1 group M subtype B, UniProt P04585); assay: Protease inhibition assay (fluorometric); type: biochemical; settings: for Protease Inhibition, sample reading: sample 1, sample 2
# T1 construct: precludes use of the fluorometric HIV-1 protease assay; purchased Bachem
# Protocol: Protease inhibition is evaluated using a fluorometric method. Enzyme (Bachem) is diluted to 116 μgm/ml in 50 mM NaOAC, 5 mM DTT, 2 mM EDTA, 10% glycerol (pH 5.0) and stored as 10 μl samples at −20° C., HIV protease substrates I (Molecular Probes) is diluted to a working concentration of 0.32 nmoles/μl. Enzyme (20 μl) and drug (20 μl) are added to each well of a microtiter plate as appropriate. Positive and negative controls are evaluated in parallel. Fluorescence is quantitated on Labsystems Fluroskan II using 355 nm/460 nm at 37° C. at time zero and at 30 minute intervals for 2 hours. In instances where autofluorescence precludes use of the fluorometric HIV-1 protease assay or confirmation of a result is required, an HPLC based protease assay can be employed.
# HIV-1 cell line, CEMRF = type: cell-based; settings: for reverse transcriptase data: 7 μg/ml
# Protocol: A microtiter-based reveres transcriptase (RT) reaction is utilized (Buckheit et al (1991) AIDS Research and Human Retroviruses 7:295-302). Tritiated thymidine triphosphate (NEN)(TTP) is resuspended in distilled water at 5 Ci/ml. Poly rA and oligo dT are prepared as a stock solution which is kept at −20° C. The RT reaction buffer is prepared fresh on a daily basis and consists of 125 μl 1M EGTA, 125 μl water, 125 μl Triton X-100, 50 μl Tris (pH 7.4), 50 μl 1 MDDT, and 40 μl 1M MgCl2. These three solutions are mixed together in a ratio of 1 part TTP, 2.5 parts poly rA:oligo dT, 2.5 parts reaction buffer and 4 parts distilled water. Ten microliters of this reaction mixture is placed in a round bottom microtiter place and 15 μl of virus containing supernatant is added and mixed. The plate is incubated at 37° C. for 60 minutes. Following reaction, the reaction volume is spotted onto filter mats, washed 6 times for 5 minutes each in a 5% sodium phosphate buffer, 2 times for 1 minute each in distilled water, 2 times for 1 minute each in 70% ethanol, and then dried. The dried filter mat is placed in a plastic sample bag, Betaplate scintillation fluid is added and the bag is heat sealed. Incorporated radioactivity is quantified utilizing a Wallac Microbeta scintillation counter.
# Acute infection of most established human cell lines with HIV-1 results in the eventual establishment of a constitutive virus-producing chronically infected cell line. The cells can be passaged for long periods of time in culture without loss of virus production. These cells may be utilized to evaluate the effects of anti-HIV compounds on syncytium formation or to evaluate the effects of anti-HIV compounds on levels of virus production from these cells. […] Each of the cells contains an integrated HIV genome or provirus. Chronically infected CEM, H9 and U937 cell lines have been prepared and cultured by Southern Research Institute, Frederick Md. and are available from them.
# CEM-SS cells chronically infected with HIV isolate, for example SKI (CEM-SKI) are cultured in RPMI1640 tissue culture medium supplemented with 10% fetal bovine serum and antibiotics. Selection is performed by culturing the cells in the presence of the compound to be tested in T25 flasks. CEM-SKI or other infected cells with no added drug are used as the control cells. Cells are allowed to grow to a density of approximately 1×10^6 cells/ml and are then passaged at a 1:10 dilution. […] The drug concentration in the flask is then increased two-fold and the cells maintained as above.
# The cell populations contain integrated copies of the HIV genome and constitutively produce HIV at relatively high levels or are latently infected and only produce virus after stimulation with phorbol esters, tumor necrosis factor or IL6 (U1 and ACH2).
# A long term in vitro study of 2-(2-thienyl)-imidazolo [4,5-b]pyridine against an HIV-1 cell line, CEMRF, was conducted at three different levels. […] CEMRF is a chronic HIV cell line.
# [1] = Kaposi's Sarcoma test: toxicity values; type: cell-based; settings: human, TPA-induced BCBL-1 cells (HHV8 cell line); read-out: TC50 (the source's name)
# Protocol: The DNA copy number and the toxicity value were measured and compared with Cidofovir.
structure (smiles),measurement,setting,value
"c1csc(-c2nc3cccnc3[nH]2)c1 [2-(2-thienyl)-imidazolo [4,5-b]pyridine]","Protease Inhibition, mean",HIV-1 protease; 1 nM,24.7
same,"Protease Inhibition, sample reading",HIV-1 protease; 1 nM,27.1 and 22.4
same,"Protease Inhibition, mean",HIV-1 protease; 10 nM,36.7
same,"Protease Inhibition, sample reading",HIV-1 protease; 10 nM,33.2 and 40.2
same,"Protease Inhibition, mean",HIV-1 protease; 100 nM,76.1
same,"Protease Inhibition, sample reading",HIV-1 protease; 100 nM,75.4 and 76.8
same,"Protease Inhibition, mean",HIV-1 protease; 1000 nM,213.8
same,"Protease Inhibition, sample reading",HIV-1 protease; 1000 nM,219.4 and 208.2
same,reverse transcriptase data,"HIV-1 cell line, CEMRF; day 4",6521
same,reverse transcriptase data,"HIV-1 cell line, CEMRF; day 67",9241
same,reverse transcriptase data,"HIV-1 cell line, CEMRF; day 71",8422
same,reverse transcriptase data,"HIV-1 cell line, CEMRF; day 74",8643
same,resistance developing,"HIV-1 cell line, CEMRF; by day 186 at the 15 and 30 μg/ml level",no indication of resistance developing
same,reverse transcriptase data on continuation (in words),"HIV-1 cell line, CEMRF; run through 242 days",data remained consistent
same,CC50,[1],32.6 µM
